Test results reported in PubChem BioAssay AID1259407 (Chemical Carcinogenesis Research Information System (CCRIS), 2018).
Calls of active or inactive are those of the source. The rule behind the calls is not given here.

Tested on: CCRIS mutagenicity, Ames/micronucleus/aberration tests
Test: CCRIS mutagenicity studies
[1] = Test System: AMES SALMONELLA TYPHIMURIUM, Strain/Indicator: TA98, Metabolic Activation: NONE, Method: STANDARD PLATE
[2] = Test System: AMES SALMONELLA TYPHIMURIUM, Strain/Indicator: TA100, Metabolic Activation: NONE, Method: STANDARD PLATE
[3] = Test System: E. COLI, Strain/Indicator: WP2 UVRA, Metabolic Activation: NONE, Method: PREINCUBATION
[4] = Test System: AMES SALMONELLA TYPHIMURIUM, Strain/Indicator: TA98, Metabolic Activation: NONE, Method: PREINCUBATION
[5] = Test System: AMES SALMONELLA TYPHIMURIUM, Strain/Indicator: TA100, Metabolic Activation: NONE, Method: PREINCUBATION

## CC[n+]1c(-c2ccccc2)c2cc(N)ccc2c2ccc(N)cc21
End Point: IN VITRO MICRONUCLEUS, Test System: CHO CELLS, Metabolic Activation: RAT, LIVER, S-9, AROCLOR 1254
  mutagenic call: inactive; negative
Test System: AMES SALMONELLA TYPHIMURIUM, Strain/Indicator: TA97A, Metabolic Activation: NONE, Method: STANDARD PLATE
  mutagenic call: inactive; negative
Test System: AMES SALMONELLA TYPHIMURIUM, Strain/Indicator: TA97A, Metabolic Activation: RAT LIVER S-9, AROCLOR 1254, Method: STANDARD PLATE
  mutagenic call: active; positive
[1]
  mutagenic call: inactive; negative
Test System: AMES SALMONELLA TYPHIMURIUM, Strain/Indicator: TA98, Metabolic Activation: RAT LIVER S-9, AROCLOR 1254, Method: STANDARD PLATE
  mutagenic call: active; positive
Test System: AMES SALMONELLA TYPHIMURIUM, Strain/Indicator: TA98, Metabolic Activation: RAT, LIVER, S-9, AROCLOR 1254, HAMSTER, LIVER, S-9, AROCLOR 1254, Method: STANDARD PLATE
  mutagenic call: active; positive
Test System: AMES SALMONELLA TYPHIMURIUM, Strain/Indicator: TA98, Metabolic Activation: RAT, LIVER, S-9, AROCLOR 1254, Method: STANDARD PLATE
  mutagenic call: active; positive
Test System: AMES SALMONELLA TYPHIMURIUM, Strain/Indicator: TA98, Metabolic Activation: RAT, LIVER, S-9, AROCLOR 1254 OR PHENOBARBITOL, Method: STANDARD PLATE
  mutagenic call: active; positive
[2]
  mutagenic call: inactive; negative
Test System: AMES SALMONELLA TYPHIMURIUM, Strain/Indicator: TA100, Metabolic Activation: RAT LIVER S-9, AROCLOR 1254, Method: STANDARD PLATE
  mutagenic call: inactive; negative
Test System: AMES SALMONELLA TYPHIMURIUM, Strain/Indicator: TA100, Metabolic Activation: RAT, LIVER, S-9, AROCLOR 1254 OR PHENOBARBITOL, Method: STANDARD PLATE
  mutagenic call: inactive; negative
Test System: AMES SALMONELLA TYPHIMURIUM, Strain/Indicator: TA102, Metabolic Activation: NONE, Method: STANDARD PLATE
  mutagenic call: inactive; negative
Test System: AMES SALMONELLA TYPHIMURIUM, Strain/Indicator: TA102, Metabolic Activation: RAT LIVER S-9, AROCLOR 1254, Method: STANDARD PLATE
  mutagenic call: active; positive
Test System: AMES SALMONELLA TYPHIMURIUM, Strain/Indicator: TA1535, Metabolic Activation: NONE, Method: STANDARD PLATE
  mutagenic call: inactive; negative
Test System: AMES SALMONELLA TYPHIMURIUM, Strain/Indicator: TA1535, Metabolic Activation: RAT LIVER S-9, AROCLOR 1254, Method: STANDARD PLATE
  mutagenic call: inactive; negative
Test System: AMES SALMONELLA TYPHIMURIUM, Strain/Indicator: TA1535, Metabolic Activation: RAT, LIVER, S-9, AROCLOR 1254 OR PHENOBARBITOL, Method: STANDARD PLATE
  mutagenic call: inactive; negative
Test System: AMES SALMONELLA TYPHIMURIUM, Strain/Indicator: TA1537, Metabolic Activation: NONE, Method: STANDARD PLATE
  mutagenic call: inactive; negative
Test System: AMES SALMONELLA TYPHIMURIUM, Strain/Indicator: TA1537, Metabolic Activation: RAT LIVER S-9, AROCLOR 1254, Method: STANDARD PLATE
  mutagenic call: active; positive
Test System: AMES SALMONELLA TYPHIMURIUM, Strain/Indicator: TA1537, Metabolic Activation: RAT, LIVER, S-9, AROCLOR 1254, HAMSTER, LIVER, S-9, AROCLOR 1254 (2.5-20%), Method: STANDARD PLATE
  mutagenic call: active; positive
Test System: AMES SALMONELLA TYPHIMURIUM, Strain/Indicator: TA1537, Metabolic Activation: RAT, LIVER, S-9, AROCLOR 1254, HAMSTER, LIVER, S-9, AROCLOR 1254, Method: STANDARD PLATE
  mutagenic call: active; positive
Test System: AMES SALMONELLA TYPHIMURIUM, Strain/Indicator: TA1537, Metabolic Activation: RAT, LIVER, S-9, AROCLOR 1254 OR PHENOBARBITOL, Method: STANDARD PLATE
  mutagenic call: active; positive
Test System: AMES SALMONELLA TYPHIMURIUM, Strain/Indicator: TA1538, Metabolic Activation: NONE, Method: STANDARD PLATE
  mutagenic call: inactive; negative
Test System: AMES SALMONELLA TYPHIMURIUM, Strain/Indicator: TA1538, Metabolic Activation: RAT LIVER S-9, AROCLOR 1254, Method: STANDARD PLATE
  mutagenic call: active; positive
Test System: AMES SALMONELLA TYPHIMURIUM, Strain/Indicator: TA1538, Metabolic Activation: RAT, LIVER, S-9, AROCLOR 1254, HAMSTER, LIVER, S-9, AROCLOR 1254, Method: STANDARD PLATE
  mutagenic call: active; positive
Test System: AMES SALMONELLA TYPHIMURIUM, Strain/Indicator: TA1538, Metabolic Activation: RAT, LIVER, S-9, AROCLOR 1254, Method: STANDARD PLATE
  mutagenic call: active; positive
Test System: AMES SALMONELLA TYPHIMURIUM, Strain/Indicator: TA1538, Metabolic Activation: RAT, LIVER, S-9, AROCLOR 1254 OR PHENOBARBITOL, Method: STANDARD PLATE
  mutagenic call: active; positive
Test System: CHINESE HAMSTER OVARY, Strain/Indicator: CHO-K1-BH4 (HGPRT)/6-THIOGUANINE, Metabolic Activation: NONE, Method: SUSPENSION/PLATE
  mutagenic call: inactive; negative
Test System: CHINESE HAMSTER OVARY, Strain/Indicator: CHO-K1-BH4 (HGPRT)/6-THIOGUANINE, Metabolic Activation: S-9, Method: SUSPENSION/PLATE
  mutagenic call: inactive; negative
Test System: CHINESE HAMSTER OVARY, Strain/Indicator: CHO-K1-BH4 (HGPRT), Metabolic Activation: NONE, Method: SUSPENSION/PLATE
  mutagenic call: inactive; negative
Test System: CHINESE HAMSTER OVARY, Strain/Indicator: CHO-K1-BH4 (HGPRT), Metabolic Activation: RAT, LIVER, S-9, AROCLOR, Method: SUSPENSION/PLATE
  mutagenic call: inactive; negative
Test System: CHINESE HAMSTER V-79, Strain/Indicator: V-79/6-THIOGUANINE, Metabolic Activation: NONE, Method: FLASK ASSAY
  mutagenic call: inactive; negative
Test System: E. COLI, Strain/Indicator: WP2, Metabolic Activation: NONE, Method: PREINCUBATION
  mutagenic call: inactive; negative
[3]
  mutagenic call: inactive; negative
Test System: MOUSE LYMPHOMA, Strain/Indicator: L5178Y (TK+/TK-), Metabolic Activation: RAT, LIVER, S-9, AROCLOR 1254, Method: SUSPENSION/PLATE
  mutagenic call: active; positive. reevaluation of results: positive
Test System: MOUSE LYMPHOMA, Strain/Indicator: L5178Y (TK+/TK-), Metabolic Activation: S-9, Method: SUSPENSION/PLATE
  mutagenic call: inactive; negative

## Cc1cc(N)c(S(=O)(=O)O)cc1Cl
[4]
  mutagenic call: inactive; negative
Test System: AMES SALMONELLA TYPHIMURIUM, Strain/Indicator: TA98, Metabolic Activation: RAT, LIVER, S-9, KC 500, Method: PREINCUBATION
  mutagenic call: inactive; negative
[5]
  mutagenic call: inactive; negative
Test System: AMES SALMONELLA TYPHIMURIUM, Strain/Indicator: TA100, Metabolic Activation: RAT, LIVER, S-9, KC 500, Method: PREINCUBATION
  mutagenic call: inactive; negative
Test System: AMES SALMONELLA TYPHIMURIUM, Strain/Indicator: TA1535, Metabolic Activation: NONE, Method: PREINCUBATION
  mutagenic call: inactive; negative
Test System: AMES SALMONELLA TYPHIMURIUM, Strain/Indicator: TA1535, Metabolic Activation: RAT, LIVER, S-9, KC 500, Method: PREINCUBATION
  mutagenic call: inactive; negative
Test System: AMES SALMONELLA TYPHIMURIUM, Strain/Indicator: TA1537, Metabolic Activation: NONE, Method: PREINCUBATION
  mutagenic call: inactive; negative
Test System: AMES SALMONELLA TYPHIMURIUM, Strain/Indicator: TA1537, Metabolic Activation: RAT, LIVER, S-9, KC 500, Method: PREINCUBATION
  mutagenic call: inactive; negative
Test System: AMES SALMONELLA TYPHIMURIUM, Strain/Indicator: TA1538, Metabolic Activation: NONE, Method: PREINCUBATION
  mutagenic call: inactive; negative
Test System: AMES SALMONELLA TYPHIMURIUM, Strain/Indicator: TA1538, Metabolic Activation: RAT, LIVER, S-9, KC 500, Method: PREINCUBATION
  mutagenic call: inactive; negative
[3]
  mutagenic call: inactive; negative
Test System: E. COLI, Strain/Indicator: WP2 UVRA, Metabolic Activation: RAT, LIVER, S-9, KC 500, Method: PREINCUBATION
  mutagenic call: inactive; negative

## O=C(O)c1ccc(Cl)c([N+](=O)[O-])c1
[4]
  mutagenic call: active; positive
Test System: AMES SALMONELLA TYPHIMURIUM, Strain/Indicator: TA98, Metabolic Activation: RAT, LIVER, S-9, KANECHLOR 500, Method: PREINCUBATION
  mutagenic call: inactive; negative
[5]
  mutagenic call: active; positive
Test System: AMES SALMONELLA TYPHIMURIUM, Strain/Indicator: TA100, Metabolic Activation: RAT, LIVER, S-9, KANECHLOR 500, Method: PREINCUBATION
  mutagenic call: active; positive

## Cc1ccc(N=Nc2c(O)ccc3ccccc23)c(S(=O)(=O)O)c1
[1]
  mutagenic call: inactive; negative
Test System: AMES SALMONELLA TYPHIMURIUM, Strain/Indicator: TA98, Metabolic Activation: RAT, LIVER, S-9, Method: STANDARD PLATE
  mutagenic call: inactive; negative
[2]
  mutagenic call: inactive; negative
Test System: AMES SALMONELLA TYPHIMURIUM, Strain/Indicator: TA100, Metabolic Activation: RAT, LIVER, S-9, Method: STANDARD PLATE
  mutagenic call: inactive; negative
